Results on 1 molecule are retold here after patent publication US8753570B2, “Structure, synthesis, and applications for oligo phenylene ethynylenes” (STC.UNM, priority 2008, dated 2014).

This assay concerns Bacillus atrophaeus. Put plainly: Dark and uv biocidal activity. In kind it is cell-based.

For `C[N+](C)(C)CCCOc1ccc(C#Cc2ccc(C#Cc3ccc(OCCC[N+](C)(C)C)cc3)cc2)cc1` [S-OPE-EO], under “365 nm uv light, 30 minutes”, the killing under uv entry was “almost the same level killing”. Further, the “killing in the dark” value (dark, 6 hour exposure) is “several log kills”. Also, the biocidal activity entry (in the dark and upon uv irradiation) is “remarkable biocidal activity”.
